# Source: patent US20240065988A1, “COMBINED USE OF KETAMINE AND RETIGABINE (EZOGABINE) FOR THE TREATMENT OF PSYCHIATRIC DISORDERS” (Yeda Research and Development Co. Ltd., priority 2021, published 2024)
# System: single cells from the ventral hippocampus (vHipp)
# Experiment: Single-cell RNA sequencing (scRNA-seq) of the ventral hippocampus after ketamine treatment; differential expression per cell type; for Mean-Ket: unit not given here
# [1] = Astrocytes, ketamine 10 mg/kg i.p.
# [2] = Astrocytes, ketamine 10 mg/kg i.p. vs saline
smiles,measurement,setting,value
"CNC1(c2ccccc2Cl)CCCCC1=O (racemic) [ketamine, (R,S)-ketamine]",Change,"Aarsd1, Glut Neurons",Down
same,Mean-Ket,"Aarsd1, Glut Neurons",1.682
same,logFC,"Aarsd1, Glut Neurons",−0.119
same,Change,"Acad9, Glut Neurons",Up
same,Mean-Ket,"Acad9, Glut Neurons",1.372
same,logFC,"Acad9, Glut Neurons",0.210
same,Change,"Aire, Glut Neurons",Down
same,Mean-Ket,"Aire, Glut Neurons",2.157
same,logFC,"Aire, Glut Neurons",−0.116
same,Change,"Akap5, Astrocytes",Down
same,Mean-Ket,"Akap5, Astrocytes",4.005
same,logFC,"Akap5, Astrocytes",−0.219
same,Aire Mean-Ket,[1],2.361
same,Aktip Mean-Ket,[1],1.656
same,Atg2a Mean-Ket,[1],1.418
same,Calm1 Mean-Ket,[1],2.021
same,Calm2 Mean-Ket,[1],1.730
same,Capza2 Mean-Ket,[1],3.001
same,Cars2 Mean-Ket,[1],2.703
same,Cep89 Mean-Ket,[1],2.822
same,Cox7a2 Mean-Ket,[1],1.052
same,Elp6 Mean-Ket,[1],1.701
same,Fam193a Mean-Ket,[1],2.684
same,Gje1 Mean-Ket,[1],0.961
same,Gmeb1 Mean-Ket,[1],2.962
same,Hadhb Mean-Ket,[1],1.956
same,Haus8 Mean-Ket,[1],1.269
same,Lztr1 Mean-Ket,[1],1.556
same,Mettl3 Mean-Ket,[1],2.842
same,Mrp19 Mean-Ket,[1],2.904
same,Mterf3 Mean-Ket,[1],1.289
same,Nop58 Mean-Ket,[1],2.828
same,P3h3 Mean-Ket,[1],2.495
same,Parp1 Mean-Ket,[1],2.675
same,Polr2c Mean-Ket,[1],2.613
same,Ppan Mean-Ket,[1],2.916
same,Rfc2 Mean-Ket,[1],0.929
same,Rpap1 Mean-Ket,[1],1.265
same,Sec23ip Mean-Ket,[1],2.886
same,Slc23a1 Mean-Ket,[1],2.421
same,Snf8 Mean-Ket,[1],2.945
same,Sumf2 Mean-Ket,[1],1.532
same,Tecr Mean-Ket,[1],1.562
same,Tuba1b Mean-Ket,[1],1.065
same,Tubb2a Mean-Ket,[1],0.960
same,Uba2 Mean-Ket,[1],1.413
same,Vps8 Mean-Ket,[1],2.087
same,Zcchc4 Mean-Ket,[1],0.999
same,Aire Change,[2],Down
same,Aire logFC,[2],−0.106
same,Aktip Change,[2],Down
same,Aktip logFC,[2],−0.119
same,Atg2a Change,[2],Down
same,Atg2a logFC,[2],−0.105
same,Calm1 Change,[2],Down
same,Calm1 logFC,[2],−0.155
same,Calm2 Change,[2],Down
same,Calm2 logFC,[2],−0.130
same,Capza2 Change,[2],Down
same,Capza2 logFC,[2],−0.082
same,Cars2 Change,[2],Down
same,Cars2 logFC,[2],−0.090
same,Cep89 Change,[2],Down
same,Cep89 logFC,[2],−0.075
same,Cox7a2 Change,[2],Down
same,Cox7a2 logFC,[2],−0.144
same,Elp6 Change,[2],Down
same,Elp6 logFC,[2],−0.124
same,Fam193a Change,[2],Down
same,Fam193a logFC,[2],−0.088
same,Gje1 Change,[2],Down
same,Gje1 logFC,[2],−0.108
same,Gmeb1 Change,[2],Down
same,Gmeb1 logFC,[2],−0.074
same,Hadhb Change,[2],Down
same,Hadhb logFC,[2],−0.103
same,Haus8 Change,[2],Down
same,Haus8 logFC,[2],−0.116
same,Lztr1 Change,[2],Down
same,Lztr1 logFC,[2],−0.130
same,Mettl3 Change,[2],Down
same,Mettl3 logFC,[2],−0.077
same,Mrp19 Change,[2],Down
same,Mrp19 logFC,[2],−0.074
same,Mterf3 Change,[2],Down
same,Mterf3 logFC,[2],−0.125
same,Nop58 Change,[2],Down
same,Nop58 logFC,[2],−0.094
same,P3h3 Change,[2],Down
same,P3h3 logFC,[2],−0.092
same,Parp1 Change,[2],Down
same,Parp1 logFC,[2],−0.079
same,Polr2c Change,[2],Down
same,Polr2c logFC,[2],−0.091
same,Ppan Change,[2],Down
same,Ppan logFC,[2],−0.074
same,Rfc2 Change,[2],Down
same,Rfc2 logFC,[2],−0.121
same,Rpap1 Change,[2],Down
same,Rpap1 logFC,[2],−0.125
same,Sec23ip Change,[2],Down
same,Sec23ip logFC,[2],−0.086
same,Slc23a1 Change,[2],Down
same,Slc23a1 logFC,[2],−0.099
same,Snf8 Change,[2],Down
same,Snf8 logFC,[2],−0.074
same,Sumf2 Change,[2],Down
same,Sumf2 logFC,[2],−0.127
same,Tecr Change,[2],Down
same,Tecr logFC,[2],−0.242
same,Tuba1b Change,[2],Down
same,Tuba1b logFC,[2],−0.115
same,Tubb2a Change,[2],Down
same,Tubb2a logFC,[2],−0.113
same,Uba2 Change,[2],Down
same,Uba2 logFC,[2],−0.113
same,Vps8 Change,[2],Down
same,Vps8 logFC,[2],−0.120
same,Zcchc4 Change,[2],Down
same,Zcchc4 logFC,[2],−0.112
same,Change,"Atp5a1, Glut Neurons",Down
same,Mean-Ket,"Atp5a1, Glut Neurons",0.832
same,logFC,"Atp5a1, Glut Neurons",−0.162
same,Change,"Atp5j2, Glut Neurons",Down
same,Mean-Ket,"Atp5j2, Glut Neurons",0.851
same,logFC,"Atp5j2, Glut Neurons",−0.169
same,Change,"Atp5j, Glut Neurons",Down
same,Mean-Ket,"Atp5j, Glut Neurons",1.199
same,logFC,"Atp5j, Glut Neurons",−0.230
same,Change,"Atp6v0e2, Astrocytes",Down
same,Mean-Ket,"Atp6v0e2, Astrocytes",1.529
same,logFC,"Atp6v0e2, Astrocytes",−0.138
same,Change,"Atp5h, Glut Neurons",Down
same,Mean-Ket,"Atp5h, Glut Neurons",1.341
same,logFC,"Atp5h, Glut Neurons",−0.231
